How the values were obtained:
[1] = test system: caco cell; assay: Bioaccessibility studies using in-vitro digestion/caco cell techniques; assay type: in vitro ADME; conditions: carotenoids from Gac pulp
Source text: The good absorption and transport of carotenoids after gac pulp consumption are probably due to its soft texture and to these high levels of fatty acids. […] This is in sharp contrast to other carotenoid rich fruits, which show a relatively low carotenoid bioavailability due to the lack of uptake enhancing lipids.

[2] = Gac pulp consumed alone, 30-day feeding trial; cited from earlier work

Row | SMILES | bioavailability (bioaccessibility), in-vitro digestion/caco cell [1] | bioavailability: change in the human circulation after feeding trial [2]
1 | CC1=C(/C=C/C(C)=C/C=C/C(C)=C/C=C/C=C(C)/C=C/C=C(C)/C=C/C2=C(C)CCCC2(C)C)C(C)(C)CCC1 [beta-carotene] | high bioavailability | significant increase
2 | CC(C)=CCC/C(C)=C/C=C/C(C)=C/C=C/C(C)=C/C=C/C=C(C)/C=C/C=C(C)/C=C/C=C(\C)CCC=C(C)C [lycopene] | high bioavailability | significant increase
